Measured values published in patent US20050182084A1, “Method for treating erectile dysfunction” (FUJISAWA PHARMACEUTICAL CO., LTD., priority 2004, published 2005).

System: rat cavernous nerve injury model
Assay: recovery of erectile function in rat cavernous nerve injury model (intracavernous pressure)
Assay type: in vivo
Protocol: Effect of the compound (Ia) on erectile dysfunction was confirmed by a rat cavernous nerve injury model.
• (1) The recovery of erectile function after cavernous nerve injury was basically assessed in a similar manner to that of BJU International 92, 470-475 (2003). • (2) The compound (Ia), in a form of the solution which was prepared in a similar manner to that of Example 1 mentioned above, or its placebo was given to rats, from 1 day after surgery to 1 day before harvesting for 8 weeks, subcutaneously after being diluted with a suitable amount of HCO-60/EtOH in physiological saline.

## CO[C@H]1C[C@@H](C)C/C(C)=C/[C@@H](CC(C)=O)C(=O)C[C@H](O)[C@@H](C)[C@@H](/C(C)=C/[C@@H]2CC[C@@H](O)[C@H](OC)C2)OC(=O)[C@@H]2CCCCN2C(=O)C(=O)[C@]2(O)O[C@H]1[C@@H](OC)C[C@H]2C [Compound (Ia)]
Rat cavernous nerve injury model, conclusion from Table 1
  effect on intracavernous pressure (in words): remarkable recovery effect on intracavernous pressure
rat, cavernous nerve injury, 1 mg/kg subcutaneously, from 1 day after surgery for 8 weeks, n = 7, **P < 0.01 v.s. vehicle-treated (Dunnett's post-test)
  Peak intracavernous pressure(cm H2O) mean ± S.E.: 97.4 ± 8.0** cm H2O
